Laboratory results: patent publication US10800791B2, “Triazole ACC inhibitors and uses thereof” (Gilead Apollo, LLC, priority 2015, dated 2020)
Converted amounts (≈) assume the structure as drawn. Where two headings read alike, the source gives them in different places.

Columns and labels:
[1] = tested on: C. krusei; experiment: Antifungal Activity Assay (broth microtiter MIC), C. krusei; format: cell-based, Candida krusei; conditions: Pichia kudriavzevii, ATCC6258, 48 h
Procedure, shortened: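 CLSI M27-A3 microdilution; RPMI 1640+MOPS; 2.5×10^3 CFU/mL final inoculum; cultures from Sabouraud dextrose agar, 35° C overnight; compound working solution 128 μg/mL from 1 mg/mL DMSO stock; visual MIC at 48 h vs growth control.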

[2] = tested on: Collectotrichum graminicola (Cg); experiment: Growth inhibition assay of fungal pathogens, Cg; format: cell-based; conditions: 48 h
Procedure, shortened: (§1)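 Read-out: OD600 plus visual rating at 24 and 48 h, blank (media + 2% DMSO) subtracted. Percent inhibition was derived at 48 h versus the 2% DMSO control. Spores were grown in 17% V8 broth with compound at 50/10/2 or 2/0.4/0.08 ppm final.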

[3] = tested on: Phytophthora capsici (Pc); experiment: Growth inhibition assay of fungal pathogens, Pc; format: cell-based; conditions: 48 h
Procedure, shortened: as §1

[4] = read-out: MIC, C. krusei ATCC 6258, Table 3a, 3 replicates, MIC recorded at 48 h
[5] = read-out: MIC, C. krusei ATCC 6258, Table 3b (additional results), 3 replicates, MIC recorded at 48 h
[6] = read-out: Concentration at 90% Inhibition Cg, Collectotrichum graminicola, growth inhibition at 48 hours vs 2% DMSO control
[7] = read-out: Concentration at 90% Inhibition Cg, Collectotrichum graminicola, growth inhibition vs 2% DMSO control at 48 hours
[8] = read-out: Concentration at 90% Inhibition Pc, Phytophthora capsici, growth inhibition at 48 hours vs 2% DMSO control
[9] = read-out: Concentration at 90% Inhibition Pc, Phytophthora capsici, growth inhibition vs 2% DMSO control at 48 hours
[10] = Table 3a, ATCC 6258, 3 replicates, MIC recorded at 48 h, read-out: MIC, C. krusei ATCC 6258
[11] = Table 3b (additional results), ATCC 6258, 3 replicates, MIC recorded at 48 h, read-out: MIC, C. krusei ATCC 6258
[12] = Collectotrichum graminicola, growth inhibition at 48 hours vs 2% DMSO control, read-out: Concentration at 90% Inhibition Cg
[13] = Collectotrichum graminicola, growth inhibition vs 2% DMSO control at 48 hours, read-out: Concentration at 90% Inhibition Cg
[14] = growth inhibition at 48 hours vs 2% DMSO control, read-out: Concentration at 90% Inhibition Pc
[15] = growth inhibition vs 2% DMSO control at 48 hours, read-out: Concentration at 90% Inhibition Pc

| SMILES | MIC [1, 4] [µg/mL] | MIC [1, 5] [µg/mL] | IC90 [2, 6] [µg/mL] | IC90 [2, 7] [µg/mL] | IC90 [3, 8] [µg/mL] | IC90 [3, 9] [µg/mL] | MIC [1, 10] [µg/mL] | MIC [1, 11] [µg/mL] | IC90 [2, 12] [µg/mL] | IC90 [2, 13] [µg/mL] | IC90 [3, 14] [µg/mL] | IC90 [3, 15] [µg/mL] |
| --- | --- | --- | --- | --- | --- | --- | --- | --- | --- | --- | --- | --- |
| COc1ccc(F)cc1[C@H](Cn1c(=O)n(CC(=O)NC(C)C)c(=O)c2c(C)c(-n3nccn3)sc21)OCCO [Compound I-82, (R)-2-(1-(2-(5-fluoro-2-methoxyphenyl)-2-(2-hydroxy-ethoxy)ethyl)-5-methyl-2,4-dioxo-6-(2H-1,2,3-triazol-2-yl)-1,4-dihydro-thieno[2,3-d]pyrimidin-3(2H)-yl)-N-isopropylacetamide] | 2.1 to 4 (≈ 3.75 to 7.14 µM) | 2.01 to 4 (≈ 3.59 to 7.14 µM) | 2 (≈ 3.57 µM) | 2 (≈ 3.57 µM) | > 50 | > 50 | – | – | – | – | – | – |
| COc1ccc(F)cc1[C@H](Cn1c(=O)n([C@H](C)C(=O)NC2CCC2)c(=O)c2c(C)c(-n3nccn3)sc21)OCCO [Compound I-84, (R)—N-cyclobutyl-2-(1-((R)-2-(5-fluoro-2-methoxyphenyl)-2-(2-hydroxyethoxy)ethyl)-5-methyl-2,4-dioxo-6-(2H-1,2,3-triazol-2-yl)-1,4-dihydrothieno[2,3-d]pyrimidin-3(2H)-yl)propanamide] | – | – | – | – | – | – | 0.25 to 1 (≈ 0.426 to 1.7 µM) | 0.25 to 1 (≈ 0.426 to 1.7 µM) | 0.08 (≈ 0.136 µM) | 0.08 (≈ 0.136 µM) | 2 (≈ 3.41 µM) | 2 (≈ 3.41 µM) |
| COc1ccc(F)cc1[C@H](Cn1c(=O)n([C@H](C)C(=O)N(C)C(C)C)c(=O)c2c(C)c(-n3nccn3)sc21)OCCO [Compound I-85, (R)-2-(1-((R)-2-(5-fluoro-2-methoxyphenyl)-2-(2-hydroxy-ethoxy)ethyl)-5-methyl-2,4-dioxo-6-(2H-1,2,3-triazol-2-yl)-1,4-dihydro-thieno[2,3-d]pyrimidin-3(2H)-yl)-N-isopropyl-N-methylpropanamide] | – | – | – | – | – | – | 0.25 to 1 (≈ 0.425 to 1.7 µM) | 1.01 to 2 (≈ 1.72 to 3.4 µM) | 0.08 (≈ 0.136 µM) | 0.08 (≈ 0.136 µM) | 2 (≈ 3.4 µM) | 2 (≈ 3.4 µM) |
| COCCCO[C@@H](Cn1c(=O)n([C@@H](C)C(=O)NC(C)C)c(=O)c2c(C)c(-n3nccn3)sc21)c1cc(F)ccc1OC [Compound I-86, (S)-2-(1-((R)-2-(5-fluoro-2-methoxyphenyl)-2-(3-methoxy-propoxy)ethyl)-5-methyl-2,4-dioxo-6-(2H-1,2,3-triazol-2-yl)-1,4-dihydrothieno[2,3-d]pyrimidin-3(2H)-yl)-N-isopropylpropanamide] | 2.1 to 4 (≈ 3.48 to 6.64 µM) | 1.01 to 2 (≈ 1.68 to 3.32 µM) | 10 (≈ 16.6 µM) | > 50 | > 50 | > 50 | – | – | – | – | – | – |
| COCCCO[C@@H](Cn1c(=O)n([C@H](C)C(=O)NC(C)C)c(=O)c2c(C)c(-n3nccn3)sc21)c1cc(F)ccc1OC [Compound I-87, (R)-2-(1-((R)-2-(5-fluoro-2-methoxyphenyl)-2-(3-methoxy-propoxy)ethyl)-5-methyl-2,4-dioxo-6-(2H-1,2,3-triazol-2-yl)-1,4-dihydrothieno[2,3-d]pyrimidin-3(2H)-yl)-N-isopropylpropanamide] | – | – | – | – | – | – | 1.1 to 2 (≈ 1.83 to 3.32 µM) | 1.01 to 2 (≈ 1.68 to 3.32 µM) | 0.08 (≈ 0.133 µM) | 0.08 (≈ 0.133 µM) | > 50 | > 50 |
| COc1ccc(F)cc1[C@H](Cn1c(=O)n([C@@H](C)C(=O)NC(C)C)c(=O)c2c(C)c(-n3nccn3)sc21)OCCO [Compound I-88, (S)-2-(1-((R)-2-(5-fluoro-2-methoxyphenyl)-2-(2-hydroxyethoxy)ethyl)-5-methyl-2,4-dioxo-6-(2H-1,2,3-triazol-2-yl)-1,4-dihydro-thieno[2,3-d]pyrimidin-3(2H)-yl)-N-isopropylpropanamide] | 0.25 to 1 (≈ 0.435 to 1.74 µM) | 1.01 to 2 (≈ 1.76 to 3.48 µM) | 0.08 (≈ 0.139 µM) | 0.08 (≈ 0.139 µM) | 2 (≈ 3.48 µM) | 2 (≈ 3.48 µM) | – | – | – | – | – | – |
| COc1ccc(F)cc1[C@H](Cn1c(=O)n([C@H](C)C(=O)NC(C)C)c(=O)c2c(C)c(-n3nccn3)sc21)OCCO [Compound I-89, (R)-2-(1-((R)-2-(5-fluoro-2-methoxyphenyl)-2-(2-hydroxy-ethoxy)ethyl)-5-methyl-2,4-dioxo-6-(2H-1,2,3-triazol-2-yl)-1,4-dihydrothieno[2,3-d]pyrimidin-3(2H)-yl)-N-isopropylpropanamide] | 2.1 to 4 (≈ 3.65 to 6.96 µM) | 1.01 to 2 (≈ 1.76 to 3.48 µM) | > 50 | > 50 | > 50 | > 50 | – | – | – | – | – | – |
| COc1ccc(F)cc1[C@H](Cn1c(=O)n(C(C)(C)C(=O)NC(C)C)c(=O)c2c(C)c(-n3nccn3)sc21)OCCC(N)=O [Compound I-90, (R)-2-(1-(2-(3-amino-3-oxopropoxy)-2-(5-fluoro-2-metho-xyphenyl)ethyl)-5-methyl-2,4-dioxo-6-(2H-1,2,3-triazol-2-yl)-1,4-dihydro-thieno[2,3-d]pyrimidin-3(2H)-yl)-N-isopropyl-2-methylpropanamide] | – | – | – | – | – | – | 1.1 to 2 (≈ 1.79 to 3.25 µM) | 0.25 to 1 (≈ 0.406 to 1.62 µM) | 10 (≈ 16.2 µM) | > 50 | > 50 | > 50 |
| COc1ccc(F)cc1[C@H](Cn1c(=O)n(C(C)(C)C(=O)NC(C)C)c(=O)c2c(C)c(-n3nccn3)sc21)OCCC#N [Compound I-91, (R)-2-(1-(2-(2-cyanoethoxy)-2-(5-fluoro-2-methoxy-phenyl)ethyl)-5-methyl-2,4-dioxo-6-(2H-1,2,3-triazol-2-yl)-1,4-dihydro-thieno[2,3-d]pyrimidin-3(2H)-yl)-N-isopropyl-2-methylpropanamide] | – | – | – | – | – | – | 0.06 to 0.24 (≈ 0.1 to 0.402 µM) | 0.25 to 1 (≈ 0.418 to 1.67 µM) | 0.08 (≈ 0.134 µM) | 0.08 (≈ 0.134 µM) | 2 (≈ 3.35 µM) | 10 (≈ 16.7 µM) |
